Assay results published in publication PMC8206213, “An L-2-hydroxyglutarate biosensor based on specific transcriptional regulator LhgR” (Nature Communications, 2021).
Where “and” joins values, the source holds several entries; their conditions need not be identical. Identical values can stand only once.

Tests used:
[1] = tested on: LHGFR0N3C; test: Influence of other compounds on the response of purified LHGFR0N3C to L-2-HG; assay type: binding, Pseudomonas putida W619
Summary of the method: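 Purified L-2-HG biosensors were mixed 3:1 with test compounds in 50 mM Tris-HCl pH 7.4, excited at 430 nm, and the 528 nm (Venus)/485 nm (mTFP) emission was read. Responses were fitted with a Hill model giving apparent Kd and Hill slope.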

[2] = tested on: LHGFR0N7C expressed in E. coli BL21(DE3); test: Specificity of LHGFR0N7C expressed in E. coli BL21(DE3), 1 mM compounds; assay type: cell-based; details: Supplementary Fig. 13c
Procedure: To characterize the sensitivity and specificity of LHGFR expressed in E. coli BL21(DE3), 90 μL cell suspensions following 8 h carbon starvation were mixed with 10 μL increasing concentrations of L-2-HG or other compounds, and then added into a black 96-well plate (total 100 μL/per well), the fluorescence intensities were determined using an EnSight microplate reader (PerkinElmer, USA) and the following instrument settings: excitation at 430 nm, emission at 485 nm (mTFP) and 528 nm (Venus), time intervals of 5 min, the temperature at 37 °C, and shake at 180 rpm.

[3] = tested on: LHGFR0N3C expressed in HEK293FT cells; test: Specificity of LHGFR0N3C expressed in permeabilized HEK293FT cells, 1 mM compounds; assay type: cell-based, human (HEK293FT cells)
Procedure: (§1) To characterize the sensitivity and specificity of LHGFR expressed in HEK293FT cells, cells were trypsinized 48 h following transfection and suspended in 1× Hank’s balanced salt solution supplemented with 20 mM HEPES. […] Digitonin at a concentration of 10 μM was used to induce cell permeabilization and deplete intracellular L-2-HG for in vivo response curves construction. Then, the fluorescence intensities were determined by a SpectraMax i3 fluorescence plate reader (Molecular Devices, USA) with excitation at 430 nm and emission at 485 nm (mTFP) and 528 nm (Venus). Basal L-2-HG concentration in HEK293FT cells under physiological conditions was determined by substituting the emission ratios of non-permeabilized HEK293FT cells into the calibrated in vivo response curves.

[4] = Dose-response of LHGFR expressed in digitonin-permeabilized HEK293FT cells for L-2-HG; assay type: cell-based, human (HEK293FT cells)
Procedure: as §1

O=C(O)CC[C@H](O)C(=O)O [L-2-HG, L-2-Hydroxyglutarate]
Emission ratio of 528/485 ([1]; L-2-HG concentration 0.01, in the absence of 2-KG, Suppl. Fig. 9g): 1.4026 and 1.407 and 1.399
Emission ratio of 528/485 ([1]; L-2-HG concentration 0.01, in the absence of D-2-HG, Suppl. Fig. 9e): 1.361 and 1.439 and 1.415
Emission ratio of 528/485 ([1]; L-2-HG concentration 0.01, in the presence of 2-KG, Suppl. Fig. 9g): 1.363
Emission ratio of 528/485 ([1]; L-2-HG concentration 0.01, in the presence of D-2-HG, Suppl. Fig. 9e): 1.406 and 1.467 and 1.446
Emission ratio of 528/485 ([1]; L-2-HG concentration 0.1, in the absence of D-2-HG, Suppl. Fig. 9e): 1.367 and 1.431 and 1.424
Emission ratio of 528/485 ([1]; L-2-HG concentration 0.1, in the presence of D-2-HG, Suppl. Fig. 9e): 1.407 and 1.464 and 1.416
Emission ratio of 528/485 ([1]; L-2-HG concentration 0.2, in the absence of D-2-HG, Suppl. Fig. 9e): 1.3539 and 1.456 and 1.407
Emission ratio of 528/485 ([1]; L-2-HG concentration 0.2, in the presence of D-2-HG, Suppl. Fig. 9e): 1.417 and 1.4607 and 1.422
Emission ratio of 528/485 ([1]; L-2-HG concentration 1, in the absence of D-2-HG, Suppl. Fig. 9e): 1.3919 and 1.421 and 1.443
Emission ratio of 528/485 ([1]; L-2-HG concentration 1, in the presence of D-2-HG, Suppl. Fig. 9e): 1.445 and 1.477 and 1.4328
Emission ratio of 528/485 ([1]; L-2-HG concentration 2, in the absence of D-2-HG, Suppl. Fig. 9e): 1.397 and 1.479 and 1.464
Emission ratio of 528/485 ([1]; L-2-HG concentration 2, in the presence of D-2-HG, Suppl. Fig. 9e): 1.472 and 1.492 and 1.494
Emission ratio of 528/485 ([1]; L-2-HG concentration 10, in the absence of D-2-HG, Suppl. Fig. 9e): 1.597 and 1.623 and 1.644
Emission ratio of 528/485 ([1]; L-2-HG concentration 10, in the presence of D-2-HG, Suppl. Fig. 9e): 1.611 and 1.627 and 1.593
Emission ratio of 528/485 ([1]; L-2-HG concentration 20, in the absence of 2-KG, Suppl. Fig. 9g): 1.741 and 1.744 and 1.757
Emission ratio of 528/485 ([1]; L-2-HG concentration 20, in the absence of D-2-HG, Suppl. Fig. 9e): 1.77 and 1.748 and 1.778
Emission ratio of 528/485 ([1]; L-2-HG concentration 20, in the presence of 2-KG, Suppl. Fig. 9g): 1.682 and 1.691 and 1.6943
Emission ratio of 528/485 ([1]; L-2-HG concentration 20, in the presence of D-2-HG, Suppl. Fig. 9e): 1.748 and 1.775 and 1.796
Emission ratio of 528/485 ([1]; L-2-HG concentration 100, in the absence of 2-KG, Suppl. Fig. 9g): 1.995 and 2.046 and 2.033
Emission ratio of 528/485 ([1]; L-2-HG concentration 100, in the absence of D-2-HG, Suppl. Fig. 9e): 1.9389 and 1.983 and 2.002
Emission ratio of 528/485 ([1]; L-2-HG concentration 100, in the presence of 2-KG, Suppl. Fig. 9g): 1.979 and 1.983 and 2.015
Emission ratio of 528/485 ([1]; L-2-HG concentration 100, in the presence of D-2-HG, Suppl. Fig. 9e): 2.01 and 1.942 and 2.017
Emission ratio of 528/485 ([1]; L-2-HG concentration 200, in the absence of 2-KG, Suppl. Fig. 9g): 2.097 and 2.071 and 2.086
Emission ratio of 528/485 ([1]; L-2-HG concentration 200, in the absence of D-2-HG, Suppl. Fig. 9e): 2.026 and 2.0171 and 2.117
Emission ratio of 528/485 ([1]; L-2-HG concentration 200, in the presence of 2-KG, Suppl. Fig. 9g): 2.058 and 2.06 and 2.089
Emission ratio of 528/485 ([1]; L-2-HG concentration 200, in the presence of D-2-HG, Suppl. Fig. 9e): 2.039 and 1.978 and 2.053
Emission ratio of 528/485 ([1]; L-2-HG concentration 1000, in the absence of 2-KG, Suppl. Fig. 9g): 2.1941 and 2.174 and 2.177
Emission ratio of 528/485 ([1]; L-2-HG concentration 1000, in the absence of D-2-HG, Suppl. Fig. 9e): 2.163 and 2.184 and 2.199
Emission ratio of 528/485 ([1]; L-2-HG concentration 1000, in the presence of 2-KG, Suppl. Fig. 9g): 2.1301 and 2.167 and 2.163
Emission ratio of 528/485 ([1]; L-2-HG concentration 1000, in the presence of D-2-HG, Suppl. Fig. 9e): 2.202 and 2.174 and 2.19
Emission ratio of 528/485 ([1]; L-2-HG concentration 2000, in the absence of 2-KG, Suppl. Fig. 9g): 2.149 and 2.166 and 2.182
Emission ratio of 528/485 ([1]; L-2-HG concentration 2000, in the absence of D-2-HG, Suppl. Fig. 9e): 2.176 and 2.24 and 2.201
Emission ratio of 528/485 ([1]; L-2-HG concentration 2000, in the presence of 2-KG, Suppl. Fig. 9g): 2.154 and 2.1518 and 2.167
Emission ratio of 528/485 ([1]; L-2-HG concentration 2000, in the presence of D-2-HG, Suppl. Fig. 9e): 2.195 and 2.175 and 2.2011
Emission ratio ([1]; Suppl. Fig. 9a, L-2-HG alone or with the compound, three replicates): 2.053 and 2.0953 and 2.06
normalized emission ratio of biosensor expressed in E. coli ([2]; time 0 min): 1.016 and 1.006 and 1.026
normalized emission ratio of biosensor expressed in E. coli ([2]; time 5 min): 1.0991 and 1.081 and 1.1
normalized emission ratio of biosensor expressed in E. coli ([2]; time 10 min): 1.206 and 1.179 and 1.184
normalized emission ratio of biosensor expressed in E. coli ([2]; time 15 min): 1.293 and 1.273 and 1.276
normalized emission ratio of biosensor expressed in E. coli ([2]; time 20 min): 1.341 and 1.328 and 1.319
normalized emission ratio of biosensor expressed in E. coli ([2]; time 25 min): 1.35 and 1.357 and 1.333
normalized emission ratio of biosensor expressed in E. coli ([2]; time 30 min): 1.374 and 1.365 and 1.366
normalized emission ratio of biosensor expressed in E. coli ([2]; time 35 min): 1.386 and 1.367 and 1.374
normalized emission ratio of biosensor expressed in E. coli ([2]; time 40 min): 1.391 and 1.384 and 1.386
normalized emission ratio of biosensor expressed in E. coli ([2]; time 45 min): 1.414 and 1.39 and 1.389
normalized emission ratio of biosensor expressed in E. coli ([2]; time 50 min): 1.407 and 1.378 and 1.396
normalized emission ratio of biosensor expressed in E. coli ([2]; time 55 min): 1.415 and 1.39 and 1.4085
normalized emission ratio of biosensor expressed in E. coli ([2]; time 60 min): 1.43 and 1.394 and 1.408
normalized emission ratio of biosensor expressed in E. coli ([2]; time 65 min): 1.417 and 1.4114 and 1.411
normalized emission ratio of biosensor expressed in E. coli ([2]; time 70 min): 1.41 and 1.402 and 1.422
normalized emission ratio of biosensor expressed in E. coli ([2]; time 75 min): 1.393 and 1.405 and 1.423
normalized emission ratio of biosensor expressed in E. coli ([2]; time 80 min): 1.412 and 1.416 and 1.423
normalized emission ratio of biosensor expressed in E. coli ([2]; time 85 min): 1.389 and 1.408 and 1.4341
normalized emission ratio of biosensor expressed in E. coli ([2]; time 90 min): 1.404 and 1.406 and 1.429
Increase of the emission ratio of LHGFR0N3C ([3]; 10 μM digitonin-permeabilized HEK293FT cells): Only exogenous L-2-HG could significantly increase the emission ratio
Normalized emission ratio ([3]; 1 mM compound, cells permeabilized with 10 μM digitonin, normalized to control): 1.418 and 1.367 and 1.404
Normalized emission ratio ([4]; Fig. 6c, L-2-HG concentration 0.01): 0.9714 and 1.018 and 1.011
Normalized emission ratio ([4]; Fig. 6c, L-2-HG concentration 0.1): 1.002 (2×) and 0.9784
Normalized emission ratio ([4]; Fig. 6c, L-2-HG concentration 1): 1.006 and 0.9618 and 1.048
Normalized emission ratio ([4]; Fig. 6c, L-2-HG concentration 10): 1.045 and 1.118 and 1.137
Normalized emission ratio ([4]; Fig. 6c, L-2-HG concentration 20): 1.133 and 1.12 and 1.163
Normalized emission ratio ([4]; Fig. 6c, L-2-HG concentration 100): 1.245 and 1.312 and 1.322
Normalized emission ratio ([4]; Fig. 6c, L-2-HG concentration 200): 1.303 and 1.3035 and 1.367
Normalized emission ratio ([4]; Fig. 6c, L-2-HG concentration 1000): 1.414 and 1.364 and 1.401
Normalized emission ratio ([4]; Fig. 6c, L-2-HG concentration 2000): 1.387 and 1.439 and 1.425
Normalized emission ratio ([4]; Fig. 6c, L-2-HG concentration 10000): 1.443 and 1.404 and 1.415
Normalized emission ratio ([4]; L-2-HG concentration 0.01, Supplementary Fig. 17c): 0.9984 and 1.014 and 0.9873
Normalized emission ratio ([4]; L-2-HG concentration 0.01, Supplementary Fig. 18c): 0.9865 and 0.9714 and 1.042
Normalized emission ratio ([4]; L-2-HG concentration 0.1, Supplementary Fig. 17c): 1 and 1.004 and 1.02
Normalized emission ratio ([4]; L-2-HG concentration 0.1, Supplementary Fig. 18c): 0.9909 and 1.037 and 0.9822
Normalized emission ratio ([4]; L-2-HG concentration 1, Supplementary Fig. 17c): 1.007 and 1.056 and 1.0486
Normalized emission ratio ([4]; L-2-HG concentration 1, Supplementary Fig. 18c): 0.9662 and 0.9722 and 0.9935
Normalized emission ratio ([4]; L-2-HG concentration 10, Supplementary Fig. 17c): 1.22 and 1.297 and 1.235
Normalized emission ratio ([4]; L-2-HG concentration 10, Supplementary Fig. 18c): 0.9752 and 1.056 and 0.9703
Normalized emission ratio ([4]; L-2-HG concentration 20, Supplementary Fig. 17c): 1.319 and 1.273 and 1.318
Normalized emission ratio ([4]; L-2-HG concentration 20, Supplementary Fig. 18c): 1.003 and 1.067 and 0.9797
Normalized emission ratio ([4]; L-2-HG concentration 100, Supplementary Fig. 17c): 1.392 and 1.387 and 1.431
Normalized emission ratio ([4]; L-2-HG concentration 100, Supplementary Fig. 18c): 1.048 and 0.9825 and 0.9723
Normalized emission ratio ([4]; L-2-HG concentration 200, Supplementary Fig. 17c): 1.3826 and 1.447 and 1.484
Normalized emission ratio ([4]; L-2-HG concentration 200, Supplementary Fig. 18c): 0.9116 and 1.038 and 1.008
Normalized emission ratio ([4]; L-2-HG concentration 1000, Supplementary Fig. 17c): 1.434 and 1.459 and 1.447
Normalized emission ratio ([4]; L-2-HG concentration 1000, Supplementary Fig. 18c): 0.9678 and 0.9844 and 0.9663
Normalized emission ratio ([4]; L-2-HG concentration 2000, Supplementary Fig. 17c): 1.455 and 1.475 and 1.401
Normalized emission ratio ([4]; L-2-HG concentration 2000, Supplementary Fig. 18c): 0.9838 and 0.9876 and 0.9675
Normalized emission ratio ([4]; L-2-HG concentration 10000, Supplementary Fig. 17c): 1.475 and 1.44 and 1.4468
Normalized emission ratio ([4]; L-2-HG concentration 10000, Supplementary Fig. 18c): 0.9794 and 1.103 and 1.106
